According to patent US10640765B2 (priority 2016, dated 2020):

Tests used:
vaccinia virus = format: cell-based
[1] = tested on: vaccinia virus (v7.5/tk viral DNA) in BSC-1 cells; format: cell-based

CO[C@H]1/C=C/O[C@@]2(C)Oc3c(C)c(O)c4c(O)c(c(/C=N/N5CCN(C)CC5)c(O)c4c3C2=O)NC(=O)/C(C)=C\C=C\[C@H](C)[C@H](O)[C@@H](C)[C@@H](O)[C@@H](C)[C@H](OC(C)=O)[C@@H]1C [Rifampicin, rifampicin]
overall efficiency of clone production with rifampicin versus without rifampicin (vaccinia virus): approximately 10 fold | efficiency (number of recombinant clones) [1]: 113,148 clones/100 mm^2 plate
